Biological target: T1, Dopamine beta hydroxylase (Homo sapiens, UniProt P09172)
T1 construct: 125 μl of plasma; tissue Instituto Português do Sangue Transplantação; host or cells: human plasma from healthy donors
T1 sequence (P09172 40-617 limits assumed): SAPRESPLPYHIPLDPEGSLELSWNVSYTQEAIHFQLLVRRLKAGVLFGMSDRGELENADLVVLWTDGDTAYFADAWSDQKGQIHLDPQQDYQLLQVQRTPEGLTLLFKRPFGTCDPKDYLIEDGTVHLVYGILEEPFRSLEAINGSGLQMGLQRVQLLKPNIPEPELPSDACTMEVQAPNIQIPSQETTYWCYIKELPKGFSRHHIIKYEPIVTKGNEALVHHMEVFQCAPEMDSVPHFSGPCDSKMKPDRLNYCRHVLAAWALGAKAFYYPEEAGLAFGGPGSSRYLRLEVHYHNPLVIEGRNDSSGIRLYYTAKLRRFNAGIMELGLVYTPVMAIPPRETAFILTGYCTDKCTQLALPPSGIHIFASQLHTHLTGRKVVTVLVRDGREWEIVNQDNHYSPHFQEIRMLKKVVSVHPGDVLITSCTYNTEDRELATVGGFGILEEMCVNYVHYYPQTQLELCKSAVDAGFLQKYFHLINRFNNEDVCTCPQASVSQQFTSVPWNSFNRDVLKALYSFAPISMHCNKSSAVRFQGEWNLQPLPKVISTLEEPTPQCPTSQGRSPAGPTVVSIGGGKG
Experiment: Dopamine beta hydroxylase activity in human plasma
Assay type: biochemical
Settings: for Plasma (0.01 μM), activity in % of control: inhibitor 0.01 μM; for Plasma (0.1 μM), activity in % of control: inhibitor 0.1 μM
Procedure, shortened: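 Octopamine production from tyramine over 45 min at 37° C, measured photometrically at 330 nm after SCX extraction and periodate oxidation against an octopamine standard curve, indicates plasma DβH activity. Compounds tested at final 10, 100 and 1000 nM in human plasma, pH 5.0 cofactor buffer, 10 min preincubation; results as % of control.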

Compound	Plasma (0.01 μM), activity in % of control	Plasma (0.1 μM), activity in % of control
CN(C(=O)Cc1c2n(c(=S)n1C)C[C@H](c1c(F)ccc(Br)c1F)C2)C1CCOCC1 [Example 405, (S)-2-(6-(3-bromo-2,6-difluorophenyl)-2-methyl-3-thioxo-2,5,6,7-tetrahydro-3H-pyrrolo[1,2-c]imidazol-1-yl)-N-methyl-N-(tetrahydro-2H-pyran-4-yl)acetamide]	50.7 % of control	4.5 % of control
Cn1c(CC(=O)NC2CCOCC2)c2n(c1=S)C[C@H](c1c(F)ccc(Br)c1F)C2 [Example 406, (S)-2-(6-(3-bromo-2,6-difluorophenyl)-2-methyl-3-thioxo-2,5,6,7-tetrahydro-3H-pyrrolo[1,2-c]imidazol-1-yl)-N-(tetrahydro-2H-pyran-4-yl)acetamide]	28.9 % of control	2.8 % of control
O=C(O)Cc1[nH]c(=S)n2c1C[C@@H](c1c(F)ccc(Cl)c1F)C2 [Example 407, (S)-2-(6-(3-chloro-2,6-difluorophenyl)-3-thioxo-2,5,6,7-tetrahydro-3H-pyrrolo[1,2-c]imidazol-1-yl)acetic acid]	102.6 % of control	42.3 % of control
CN(C(=O)Cc1[nH]c(=S)n2c1C[C@@H](c1c(F)ccc(Br)c1F)C2)C1COC1 [Example 408, (S)-2-(6-(3-bromo-2,6-difluorophenyl)-3-thioxo-2,5,6,7-tetrahydro-3H-pyrrolo[1,2-c]imidazol-1-yl)-N-methyl-N-(oxetan-3-yl)acetamide]	77.0 % of control	14.7 % of control
O=C(Cc1[nH]c(=S)n2c1C[C@@H](c1c(F)ccc(Br)c1F)C2)NC1CCOCC1 [Example 410, (S)-2-(6-(3-bromo-2,6-difluorophenyl)-3-thioxo-2,5,6,7-tetrahydro-3H-pyrrolo[1,2-c]imidazol-1-yl)-N-(tetrahydro-2H-pyran-4-yl)acetamide]	62.3 % of control	11.1 % of control
Cn1c(CC(=O)NC2COC2)c2n(c1=S)C[C@H](c1c(F)ccc(Br)c1F)C2 [Example 413, (S)-2-(6-(3-bromo-2,6-difluorophenyl)-2-methyl-3-thioxo-2,5,6,7-tetrahydro-3H-pyrrolo[1,2-c]imidazol-1-yl)-N-(oxetan-3-yl)acetamide]	42.4 % of control	3.1 % of control
Cn1c(CC(=O)N[C@@H]2CCCOC2)c2n(c1=S)C[C@@]1(c3c(F)ccc(Cl)c3F)C[C@@H]21 [Example 415, 2-((5aS,6aR)-5a-(3-chloro-2,6-difluorophenyl)-2-methyl-3-thioxo-2,3,5,5a,6,6a-hexahydrocyclopropa[3,4]pyrrolo[1,2-c]imidazol-1-yl)-N—((R)-tetrahydro-2H-pyran-3-yl)acetamide]	14.9 % of control	2.1 % of control
Cn1c(CC(=O)N[C@H]2CCOC2)c2n(c1=S)C[C@@]1(c3c(F)ccc(Cl)c3F)C[C@@H]21 [Example 418, 2-((5aS,6aR)-5a-(3-chloro-2,6-difluorophenyl)-2-methyl-3-thioxo-2,3,5,5a,6,6a-hexahydrocyclopropa[3,4]pyrrolo[1,2-c]imidazol-1-yl)-N—((S)-tetrahydrofuran-3-yl)acetamide]	27.7 % of control	3.0 % of control
Cn1c(CC(=O)N2CCOCC2)c2n(c1=S)C[C@H](c1cc(F)cc(F)c1)C2 [Example 419, (S)-2-(6-(3,5-difluorophenyl)-2-methyl-3-thioxo-2,5,6,7-tetrahydro-3H-pyrrolo[1,2-c]imidazol-1-yl)-1-morpholinoethan-1-one]	92.5 % of control	61.0 % of control
CN(C(=O)Cc1[nH]c(=S)n2c1C[C@H](c1c(F)ccc(F)c1F)C2)C1COC1 [Example 420, (R)—N-methyl-N-(oxetan-3-yl)-2-(3-thioxo-6-(2,3,6-trifluorophenyl)-2,5,6,7-tetrahydro-3H-pyrrolo[1,2-c]imidazol-1-yl)acetamide]	87.8 % of control	48.5 % of control
Cn1c(CC(=O)N2CCOCC2)c2n(c1=S)C[C@@]1(c3c(F)ccc(Cl)c3F)C[C@@H]21 [Example 421, 2-((5aS,6aR)-5a-(3-chloro-2,6-difluorophenyl)-2-methyl-3-thioxo-2,3,5,5a,6,6a-hexahydrocyclopropa[3,4]pyrrolo[1,2-c]imidazol-1-yl)-1-morpholinoethan-1-one]	26.1 % of control	5.8 % of control

Next, values leading:

Plasma (0.01 μM), activity in % of control	Plasma (0.1 μM), activity in % of control	Compound
112.6 % of control	64.4 % of control	Cn1c(CC(=O)O)c2n(c1=S)C[C@H](c1c(F)ccc(F)c1F)C2 [Example 409, (S)-2-(2-methyl-3-thioxo-6-(2,3,6-trifluorophenyl)-2,5,6,7-tetrahydro-3H-pyrrolo[1,2-c]imidazol-1-yl)acetic Acid]
104.2 % of control	78.6 % of control	Cn1c(CC(=O)N2CCOCC2)c2n(c1=S)C[C@H](c1c(F)ccc(F)c1F)C2 [Example 411, (S)-2-(2-methyl-3-thioxo-6-(2,3,6-trifluorophenyl)-2,5,6,7-tetrahydro-3H-pyrrolo[1,2-c]imidazol-1-yl)-1-morpholinoethan-1-one]
106.2 % of control	63.2 % of control	Cn1c(CC(=O)N[C@@H]2CCOC2)c2n(c1=S)C[C@H](c1c(F)ccc(F)c1F)C2 [Example 412, 2-((S)-2-methyl-3-thioxo-6-(2,3,6-trifluorophenyl)-2,5,6,7-tetrahydro-3H-pyrrolo[1,2-c]imidazol-1-yl)-N—((R)-tetrahydrofuran-3-yl)acetamide]
95.4 % of control	49.0 % of control	Cn1c(CC(=O)NC2COC2)c2n(c1=S)C[C@@H](c1c(F)ccc(F)c1F)C2 [Example 414, (R)-2-(2-methyl-3-thioxo-6-(2,3,6-trifluorophenyl)-2,5,6,7-tetrahydro-3H-pyrrolo[1,2-c]imidazol-1-yl)-N-(oxetan-3-yl)acetamide]
75.3 % of control	25.4 % of control	Cn1c(CC(=O)NC2CCOCC2)c2n(c1=S)C[C@H](c1c(F)ccc(F)c1F)C2 [Example 416, (S)-2-(2-methyl-3-thioxo-6-(2,3,6-trifluorophenyl)-2,5,6,7-tetrahydro-3H-pyrrolo[1,2-c]imidazol-1-yl)-N-(tetrahydro-2H-pyran-4-yl)acetamide]
87.7 % of control	60.5 % of control	Cn1c(CC(=O)N[C@H]2CCOC2)c2n(c1=S)C[C@H](c1c(F)ccc(F)c1F)C2 [Example 417, 2-((S)-2-methyl-3-thioxo-6-(2,3,6-trifluorophenyl)-2,5,6,7-tetrahydro-3H-pyrrolo[1,2-c]imidazol-1-yl)-N—((S)-tetrahydrofuran-3-yl)acetamide]
